≈ marks a conversion by molar mass, not a printed value. Blank lines part the entries; values can stand above or below the compound they belong to.
Tests used:
Format in all cases: functional
Escherichia coli [1] = experiment: Antibacterial activity against Escherichia coli 2010-05 assessed as bacterial growth inhibition measured after 24 hrs by agar dilution method
Escherichia coli [2] = experiment: Antibacterial activity against Escherichia coli NIHJ JC-2 assessed as bacterial growth inhibition measured after 24 hrs by agar dilution method
Escherichia coli [3] = experiment: Antibacterial activity against Escherichia coli 2010-29 assessed as bacterial growth inhibition measured after 24 hrs by agar dilution method
Escherichia coli [4] = experiment: Antibacterial activity against Escherichia coli NIHJ assessed as bacterial growth inhibition measured after 24 hrs by agar dilution method
Escherichia coli [5] = experiment: Antibacterial activity against Escherichia coli assessed as bacterial growth inhibition incubated for 18 hrs by twofold serial dilution assay
Escherichia coli [6] = experiment: Antibacterial activity against Escherichia coli assessed as bacterial growth inhibition incubated for 24 hrs by agar streak dilution method
Escherichia coli [7] = experiment: Antibacterial activity against Escherichia coli assessed as bacterial growth inhibition measured after 24 hrs by broth micro dilution method
Escherichia coli [8] = experiment: Antibacterial activity against Escherichia coli assessed as zone of inhibition at 500 to 1000 ug per disc; conditions: dose 500-1000 µg
Escherichia coli [9] = experiment: Antibacterial activity against Escherichia coli ATCC 8739 assessed as bacterial growth inhibition incubated for 24 hrs by two-serial dilution method
Escherichia coli [10] = experiment: Antibacterial activity against Escherichia coli KC-14 infected in po dosed mouse assessed as bacterial growth inhibition; conditions: Escherichia coli
Escherichia coli [11] = experiment: Antibacterial activity against Escherichia coli MTCC 739 assessed as bacterial growth inhibition incubated for 24 hrs by spectrophotometric method
Escherichia coli [12] = experiment: Antibacterial activity against Escherichia coli assessed as bacterial growth inhibition incubated for 16 to 24 hrs by absorbance analysis; conditions: time 16-24 hrs

MIC (Escherichia coli [1]): 1 µg/mL (≈ 2.15 µM)
MIC (Escherichia coli [2]): 0.008 µg/mL (≈ 0.0172 µM)
MIC (Escherichia coli [3]): 1 µg/mL (≈ 2.15 µM)
MIC (Escherichia coli [4]): 0.008 µg/mL (≈ 0.0172 µM)
Structure (SMILES): CC1(N)CN(c2c(F)cc3c(=O)c(C(=O)O)cn(-c4cc(N)c(F)cc4CO)c3c2Cl)C1

MIC (Escherichia coli [5]): 0.13 µg/mL (≈ 0.406 µM)
Structure (SMILES): CCn1cc(C(=O)O)c(=O)c2cc(F)c(N3CCNCC3)nc21 [ENOXACIN]

MIC (Escherichia coli [6]): 2 µg/mL (≈ 3.5 µM)
Structure (SMILES): CCn1cc(C(=O)O)c(=O)c2cc(F)c(N3CCN(C4SCC(=O)N4c4nc5ccc(F)cc5s4)CC3)cc21 (centres undefined)

MIC (Escherichia coli [6]): 2 µg/mL (≈ 3.34 µM)
Structure (SMILES): CCn1cc(C(=O)O)c(=O)c2cc(F)c(N3CCN(C4SCC(=O)N4c4nc5ccc([N+](=O)[O-])cc5s4)CC3)cc21 (centres undefined)

MIC (Escherichia coli [6]): 2 µg/mL (≈ 3.27 µM)
Structure (SMILES): CCn1cc(C(=O)O)c(=O)c2cc(F)c(N3CCN(C4SCC(=O)N4c4nc5ccc(NC(C)=O)cc5s4)CC3)cc21 (centres undefined)

MIC (Escherichia coli [5]): 0.25 µg/mL (≈ 0.659 µM)
Structure (SMILES): O=C(O)c1cn(C2CC2)c2c(F)c(N3CCNCC(O)C3)c(F)cc2c1=O (centres undefined)

MIC (Escherichia coli [6]): 2 µg/mL (≈ 3.43 µM)
Structure (SMILES): O=C(O)c1cn(C2CC2)c2cc(N3CCN(C4SCC(=O)N4c4nc5ccc(F)cc5s4)CC3)c(F)cc2c1=O (centres undefined)

MIC (Escherichia coli [6]): 2 µg/mL (≈ 3.43 µM)
Structure (SMILES): CCn1cc(C(=O)O)c(=O)c2cc(F)c(N3CCN(C4SCC(=O)N4c4nc5ccc(OC)cc5s4)CC3)cc21 (centres undefined)

MIC (Escherichia coli [7]): > 6.25 µg/mL
Structure (SMILES): CCn1cc(C(=O)O)c(=O)c2cc(F)c(-n3cc(CO[C@H]4OC[C@@H](OC(C)=O)[C@H](OC(C)=O)[C@H]4OC(C)=O)nn3)c(F)c21

MIC (Escherichia coli [7]): > 6.25 µg/mL
Structure (SMILES): CCn1cc(C(=O)O)c(=O)c2cc(F)c(-n3cc(CO[C@H]4OC[C@@H](OC(C)=O)[C@@H](OC(C)=O)[C@@H]4OC(C)=O)nn3)c(F)c21

Structure (SMILES): O=c1[nH]c2ccc(F)cc2c2c1cnn2Cc1ccccc1
diameter of the inhibition zone (DIZ) (Escherichia coli [8]): 7 mm

MIC (Escherichia coli [6]): 2 µg/mL (≈ 3.1 µM)
Structure (SMILES): O=C(O)c1cn(C2CC2)c2cc(N3CCN(C4SCC(=O)N4c4nc5ccc(Br)cc5s4)CC3)c(F)cc2c1=O (centres undefined)

MIC (Escherichia coli [7]): > 6.25 µg/mL
Structure (SMILES): CCn1cc(C(=O)O)c(=O)c2cc(F)c(-n3cc(CO[C@H]4O[C@H](COC(C)=O)[C@@H](OC(C)=O)[C@H](OC(C)=O)[C@@H]4OC(C)=O)nn3)c(F)c21

MIC (Escherichia coli [9]): > 3 µg/mL
Structure (SMILES): O=C(O)c1cn(C2CC2)c2c(cc(F)c3nc(-c4ccc(F)cc4)[nH]c32)c1=O

MIC (Escherichia coli [9]): > 3 µg/mL
Structure (SMILES): O=C(O)c1cn(C2CC2)c2c(cc(F)c3nc(-c4ccc(Cl)cc4)[nH]c32)c1=O

MIC (Escherichia coli [7]): > 6.25 µg/mL
Structure (SMILES): CCn1cc(C(=O)O)c(=O)c2cc(F)c(-n3cc(CO[C@H]4O[C@@H](C)[C@H](OC(C)=O)[C@@H](OC(C)=O)[C@H]4OC(C)=O)nn3)c(F)c21

Structure (SMILES): CCOC(=O)c1c2n(c3cc(N4CCNCC4)c(F)cc3c1=O)C(C)S2 (centres undefined)
ED50 (Escherichia coli [10]; KC-14, read-out: ED50): 0.78 mg/kg

MIC (Escherichia coli [6]): 2 µg/mL (≈ 3.28 µM)
Structure (SMILES): O=C(O)c1cn(C2CC2)c2cc(N3CCN(C4SCC(=O)N4c4nc5ccc([N+](=O)[O-])cc5s4)CC3)c(F)cc2c1=O (centres undefined)

MIC (Escherichia coli [6]): 2 µg/mL (≈ 3.35 µM)
Structure (SMILES): CCOc1ccc2nc(N3C(=O)CSC3N3CCN(c4cc5c(cc4F)c(=O)c(C(=O)O)cn5CC)CC3)sc2c1 (centres undefined)

Structure (SMILES): CCOC(=O)c1c2n(c3cc(N4CCN(C(C)=O)CC4)c(F)cc3c1=O)C(C)S2 (centres undefined)
ED50 (Escherichia coli [10]; KC-14, po, read-out: ED50): 0.89 mg/kg

MIC (Escherichia coli [7]): > 6.25 µg/mL
Structure (SMILES): CCn1cc(C(=O)O)c(=O)c2cc(F)c(-n3cc(CO[C@H]4O[C@H](COC(C)=O)[C@@H](OC(C)=O)[C@H](OC(C)=O)[C@H]4NC(C)=O)nn3)c(F)c21

Structure (SMILES): COc1ccc2[nH]c(=O)c3cnn(Cc4ccccc4)c3c2c1
diameter of the inhibition zone (DIZ) (Escherichia coli [8]): 7 mm

MIC (Escherichia coli [9]): > 3 µg/mL
Structure (SMILES): O=C(O)c1cn(C2CC2)c2c(cc(F)c3nc(-c4ccoc4)[nH]c32)c1=O

MIC (Escherichia coli [11]): 25 µg/mL (≈ 47 µM)
Structure (SMILES): Cn1c(=O)cc(OCc2nn(CN3CCN(c4cccc(C(F)(F)F)c4)CC3)c(=S)o2)c2ccccc21

MIC (Escherichia coli [1]): 1 µg/mL (≈ 2.09 µM)
MIC (Escherichia coli [2]): 0.008 µg/mL (≈ 0.0167 µM)
MIC (Escherichia coli [3]): 1 µg/mL (≈ 2.09 µM)
MIC (Escherichia coli [4]): 0.008 µg/mL (≈ 0.0167 µM)
Structure (SMILES): CNC1(C)CN(c2c(F)cc3c(=O)c(C(=O)O)cn(-c4cc(N)c(F)cc4CO)c3c2Cl)C1

MIC (Escherichia coli [1]): 1 µg/mL (≈ 2.09 µM)
MIC (Escherichia coli [2]): 0.008 µg/mL (≈ 0.0167 µM)
MIC (Escherichia coli [3]): 1 µg/mL (≈ 2.09 µM)
MIC (Escherichia coli [4]): 0.008 µg/mL (≈ 0.0167 µM)
Structure (SMILES): CCNC1CN(c2c(F)cc3c(=O)c(C(=O)O)cn(-c4cc(N)c(F)cc4CO)c3c2Cl)C1

MIC (Escherichia coli [1]): 1 µg/mL (≈ 2.08 µM)
MIC (Escherichia coli [2]): 0.008 µg/mL (≈ 0.0167 µM)
MIC (Escherichia coli [3]): 1 µg/mL (≈ 2.08 µM)
MIC (Escherichia coli [4]): 0.008 µg/mL (≈ 0.0167 µM)
Structure (SMILES): CNC1CN(c2c(F)c(N)c3c(=O)c(C(=O)O)cn(-c4cc(N)c(F)cc4CO)c3c2Cl)C1

MIC (Escherichia coli [12]): 8.97 µg/mL (≈ 38.8 µM)
Structure (SMILES): Cc1ccc2[nH]c(C)c(CC(=O)O)c(=O)c2c1

MIC (Escherichia coli [12]): 8.97 µg/mL (≈ 30.3 µM)
Structure (SMILES): Cc1[nH]c2ccc(Br)cc2c(=O)c1CC(=O)O

MIC (Escherichia coli [5]): 0.049 µg/mL (≈ 0.111 µM)
Structure (SMILES): CCn1cc(C(=O)O)c(=O)c2cc(F)c(N3CCN(C/C(=N/O)c4ccoc4)CC3)cc21

MIC (Escherichia coli [7]): > 6.25 µg/mL
Structure (SMILES): CCn1cc(C(=O)O)c(=O)c2cc(F)c(-n3cc(CO[C@H]4O[C@H](COC(C)=O)[C@H](OC(C)=O)[C@H](OC(C)=O)[C@H]4OC(C)=O)nn3)c(F)c21

MIC (Escherichia coli [5]): 0.049 µg/mL (≈ 0.0918 µM)
Structure (SMILES): CCn1cc(C(=O)O)c(=O)c2cc(F)c(N3CCN(C/C(=N/OCc4ccccc4)c4ccoc4)CC3)nc21

MIC (Escherichia coli [9]): > 3 µg/mL
Structure (SMILES): Cc1ccc(-c2nc3c(F)cc4c(=O)c(C(=O)O)cn(C5CC5)c4c3[nH]2)cc1

MIC (Escherichia coli [11]): 25 µg/mL (≈ 50.2 µM)
Structure (SMILES): Cn1c(=O)cc(OCc2nn(CN3CCN(c4ccccc4F)CC3)c(=S)s2)c2ccccc21

Structure (SMILES): Cn1c(=O)c(C(=O)/C=C/c2ccco2)c(O)c2ccccc21
diameter of the inhibition zone (DIZ) (Escherichia coli [8]): 7 mm

MIC (Escherichia coli [9]): > 3 µg/mL
Structure (SMILES): O=C(O)c1cn(C2CC2)c2c(cc(F)c3nc(-c4ccccc4)[nH]c32)c1=O

MIC (Escherichia coli [5]): 0.0075 µg/mL (≈ 0.0165 µM)
Structure (SMILES): O=C(CN1CCN(c2cc3c(cc2F)c(=O)c(C(=O)O)cn3C2CC2)CC1)c1cccs1
